This is an account of results in patent US8536215B2, “Pyrazole microbiocides” (Syngenta Crop Protection LLC, priority 2010, dated 2013).

A value given as a limit tells only on which side of the number the result lay.

Data set [1] has as its system Botrytis cinerea. The data set is described as follows: Action against Botrytis cinerea - fungal growth assay. The format is cell-based. The conditions noted are these: 0.002% active ingredient, PDB broth, 24° C., photometric after 3-4 days. How it is done: (§1) Conidia of the fungus from cryogenic storage was directly mixed into nutrient broth (PDB potato dextrose broth). After placing a (DMSO) solution of the test compounds (0.002% active ingredient) into a microtiter plate (96-well format) the nutrient broth containing the fungal spores was added. The test plates were incubated at 24° C. and the inhibition of growth was measured photometrically after 3-4 days. The activity of a compound was expressed as fungal growth inhibition (0=no growth inhibition, ratings of 80% to 99% mean good to very good inhibition, 100%=complete inhibition).

Data set [2] relates to Erysiphe graminis f. sp. tritici. As to the kind of experiment: Action against Erysiphe graminis f. sp. tritici (wheat powdery mildew), wheat leaf segments, preventive. The format is in vivo. The conditions noted are these: Blumeria graminis, foliar, 168 h; 0.02% active ingredient sprayed on wheat leaf segments, assessed 7 days after inoculation; read-out: preventive fungicidal activity (inhibition). How it is done: Wheat leaf segments were placed on agar in multiwell plates (24-well format) and sprayed with test solutions (0.02% active ingredient). After drying, the leaf disks were inoculated with a spore suspension of the fungus. After appropriate incubation the activity of a compound was assessed 7 days after inoculation as preventive fungicidal activity.

The test system of data set [3] is Septoria tritici. As to the kind of experiment: Action against Septoria tritici - fungal growth assay. In kind it is cell-based. As to conditions: Zymoseptoria tritici; 0.002% active ingredient, PDB broth, 24° C., photometric after 72 hrs. On the procedure:
Conidia of the fungus from cryogenic storage were directly mixed into nutrient broth (PDB potato dextrose broth). After placing a (DMSO) solution of the test compounds (0.002% active ingredient) into a microtiter plate (96-well format) the nutrient broth containing the fungal spores was added. The test plates were incubated at 24° C. and the inhibition of growth was determined photometrically after 72 hrs. The activity of a compound was expressed as fungal growth inhibition (0=no growth inhibition, ratings of 80% to 99% mean good to very good inhibition, 100%=complete inhibition).

Data set [4] has as its system Pyrenophora teres. As to the kind of experiment: Action against Pyrenophora teres (net blotch) on barley leaf segments, preventive. The format is in vivo. As to conditions: foliar, 96 h, 0.02% active ingredient sprayed on barley leaf segments, assessed 4 days after inoculation, read-out: preventive fungicidal activity (inhibition). On the procedure:
Barley leaf segments were placed on agar in multiwell plates (24-well format) and sprayed with test solutions (0.02% active ingredient). After drying, the leaf disks were inoculated with a spore suspension of the fungus. After appropriate incubation the activity of a compound was assessed 4 days after inoculation as preventive fungicidal activity.

Data set [5] relates to Monographella nivalis (Anamorph: Fusarium nivale, Microdochium nivale). As to the kind of experiment: Action against Monographella nivalis (snow mould) - fungal growth assay. The format is cell-based. The conditions noted are these: 0.002% active ingredient, PDB broth, 24° C., photometric after 72 hrs. On the procedure: Conidia of the fungus from cryogenic storage were directly mixed into nutrient broth (PDB potato dextrose broth). After placing a DMSO-solution of the test compounds (0.002% active ingredient) into a microtiter plate (96-well format) the nutrient broth containing the fungal spores was added. The test plates were incubated at 24° C. and the inhibition of growth was measured photometrically after 72 hrs (0=no growth inhibition, ratings of 80% to 99% mean good to very good inhibition, 100%=complete inhibition).

Data set [6] has as its system Rhizoctonia Solani. The data set is described as follows: Action against Rhizoctonia solani - fungal growth assay. In kind it is cell-based. As to conditions: 0.002% active ingredient, PDB broth, 24° C., photometric after 3-4 days. On the procedure: as §1, with “Mycelial fragments of a newly grown liquid culture” for “Conidia”, “were” for “from cryogenic storage was”

The test system of data set [7] is Mycosphaerella arachidis (Cercospora arachidicola [Anamorph]). The data set is described as follows: Action against Mycosphaerella arachidis (early leaf spot of groundnut) - fungal growth assay. In kind it is cell-based. As to conditions: 0.002% active ingredient, PDB broth, 24° C., photometric after 6-7 days. How it is done:
Conidia of the fungus from cryogenic storage were directly mixed into nutrient broth (PDB potato dextrose broth). After placing a (DMSO) solution of the test compounds (0.002% active ingredient) into a microtiter plate (96-well format) the nutrient broth containing the fungal spores was added. The test plates were incubated at 24° C. and the inhibition of growth was measured photometrically after 6-7 days. The activity of a compound was expressed as fungal growth inhibition (0=no growth inhibition, ratings of 80% to 99% mean good to very good inhibition, 100%=complete inhibition).

In data set [8] the test system is Puccinia recondita. The data set is described as follows: Curative action against Puccinia recondita (brown rust) on wheat leaf segments. In kind it is in vivo. The conditions noted are these: foliar, 0.02% active ingredient sprayed one day after inoculation of wheat leaf segments, assessed 8 days after inoculation, read-out: curative fungicidal activity (inhibition). How it is done:
Wheat leaf segments were placed on agar in multiwell plates (24-well format) and inoculated with a spore suspension of the fungus. One day after inoculation the leaf segments were sprayed with test solutions (0.02% active ingredient). After appropriate incubation the activity of a compound was assessed 8 days after inoculation as curative fungicidal activity.

For data set [9], the system named is Puccinia recondita. The data set is described as follows: Protective action against Puccinia recondita (brown rust) on wheat leaf segments. In kind it is in vivo. As to conditions: foliar, 192 h, 0.02% active ingredient sprayed on wheat leaf segments, assessed 8 days after inoculation, read-out: preventive fungicidal activity (inhibition). On the procedure: Wheat leaf segments were placed on agar in multiwell plates (24-well format) and sprayed with test solutions (0.02% active ingredient). After drying, the leaf disks were inoculated with a spore suspension of the fungus. After appropriate incubation the activity of a compound was assessed 8 days after inoculation as preventive fungicidal activity.

Regarding `CON(C(=O)c1cn(C)nc1C(F)F)C(C)C1CCC(C)=CC1(C)C` (single isomer, unassigned) [Compound 1.081 Diastereomer A, 3-difluoromethyl-1-methyl-1H-pyrazole-4-carboxylic acid methoxy-[1-(2,2,4-trimethyl-cyclohex-3-enyl)-ethyl]-amide], the inhibition at 0.002 % strength in data set [1] was not below 80%.
Take `CON(C(=O)c1cn(C)nc1C(F)F)C(C)C1CC=C(C)CC1` (stereo not drawn) [Compound 1.049]: the inhibition at 0.002 % strength in [1], in data set [3], in data set [5], in data set [6] and in data set [7] was not below 80% in each case. In addition, the inhibition at 0.02 % strength in data set [2] and in data set [4] was not below 80% throughout.
Compound `CON(C(=O)c1cn(C)nc1C(F)F)C(C)C1CCC(C)=CC1(C)C` (stereo not drawn) [Compound 1.081, 3-difluoromethyl-1-methyl-1H-pyrazole-4-carboxylic acid methoxy-[1-(2,2,4-trimethyl-cyclohex-3-enyl)-ethyl]-amide] came in with a melting point of 95 to 105 °C. For the same compound, in data set [1], the inhibition at 0.002 % strength is not below 80%. The inhibition at 0.02 % strength in data set [2] was not below 80%. The compound also registered an inhibition at 0.002 % strength in data set [3] not below 80%. For the same compound, in [8], the inhibition at 0.02 % strength was not below 80%. Further, in data set [4], the inhibition at 0.02 % strength was not below 80%. This compound also had an inhibition at 0.002 % strength in [5] not below 80%. Besides, the inhibition at 0.02 % strength in data set [9] is not below 80%. The compound also displayed an inhibition at 0.002 % strength in data set [6] not below 80%. The compound further came in with an inhibition at 0.002 % strength in [7] not below 80%.
